Data from patent publication US20240116845A1, “INDENE COMPOUNDS, PHARMACEUTICAL COMPOSITIONS THEREOF, AND THEIR THERAPEUTIC APPLICATIONS” (NucMito Pharmaceuticals Co., Ltd., priority 2021, published 2024).

Columns and labels:
Assay type in all cases: cell-based
[1] = system: alpha-smooth muscle actin (α-SMA); assay: Inhibition of TGF-β induced expression of alpha-smooth muscle actin in CFSC cells (western blot); settings: compound at 10 μM, TGF-β (10 ng/mL), 24 hours
Method: The ability of a compound to inhibit the TGF-β induced expression of alpha-smooth muscle actin (α-SMA) was evaluated in CCl4-treated fat storing (CFSC) cells. α-SMA is considered as a reliable marker of hepatic stellate cell activation and a key biomarker for liver fibrosis.
CFSC cells maintained in a DMEM medium supplemented with 10% fetal bovine serum were seeded to 12-well culture dishes and grown to a confluence of 60-70% the next day. Culture was changed to a serum-free DMEM medium and the cells were treated with the compound at 10 μM in the presence of TGF-β (10 ng/mL). The cells were incubated for another 24 hours. All culture was maintained at 37° C. in 5% carbon dioxide.
An NP-40 lysate solution (50 mM Tris, pH 7.4, 150 mM NaCl, 1% NP-40) with EDTA free cocktail added was used to lyse the cells on ice for 30 min. The lysate was collected and centrifuged at 4° C. for 10 min at 12,000 rpm. The pellet was discarded and the supernatant was transferred to a new tube. The cell lysate was loaded with 5× loading buffer and boiled for 10 min, resolved by 10% SDS-polyacrylamide gel electrophoresis (SDS-PAGE), and transferred to a PVDF membrane. The membrane was blocked with 5% skim milk in Tris-buffered saline and TWEEN® 20 (TBST; 10 mM Tris-HCl, pH 8.0, 150 mM NaCl, 0.1% TWEEN® 20) for 1 h at room temperature and then incubated with α-SMA and β-actin antibodies overnight at 4° C. After washing twice with TBST, the membrane was probed with a […] anti-immunoglobulin (1:5000 dilution) for 1 h at room temperature. After two subsequent rinses in TBST, immunoreactive products were reacted with ECL and visualized by a UVP CHEMSTUDIO™ imaging system. The western blotting bands are quantitated using an ImageJ software. The percentage of inhibition was obtained by calculating the percentage decrease in the band intensity compared to the one treated with TGF-β only.
The results are summarized in Table 1, where A represents a value no less than 80/% inhibition, B represents a value less than 80% but no less than 50% inhibition, C represents a value less than 50% but no less than 30% inhibition, and D represents a value less than 30% inhibition with a compound at 10 μM.

[2] = system: A549 (lung adenocarcinoma); assay: Antiproliferative activity, CCK-8 cell viability; settings: Homo sapiens, 72 h, read-out: Inhibition of Cancerous Cells, A549
Method: (§1) The antiproliferative activity of a compound was determined in the following cell lines: MDA-MB-231 (breast cancer), HepG2 (liver cancer), SW480 (colon cancer), B16F10 (malignant melanoma), A431 (epidermoid carcinoma), A549 (lung adenocarcinoma), and HeLa (cervical cancer). MDA-MB-231, HepG2, SW480, B16F10, and A431 cells were cultured in Dulbecco's modified Eagle's medium (DMEM) containing 10% fetal bovine serum (FBS). HeLa cells were cultured in MEM/EBSS (MEM) containing 10% FBS. A549 cells were maintained in Kaighn's modification of Ham's F-12 medium containing 10% FBS. The Cell Counting Kit-8 (CCK-8) assay was used to determine the cell viability of cells following treatment with the compound.
(§2) Briefly, cells were seeded in a 96-well plate at a density of 2,000-5,000 cells/well. Following attachment, the cells were treated with the compound in media at a compound concentration of 3.3 μM, 10 μM, or 30 μM, or DMSO as a control. After the cells were incubated at 37° C. for 72 h, the CCK-8 solution (10 μL) was added to each well. After incubation at 37° C. for 4 h, the absorbance value of each well was determined using a multi-well plate reader at 450 nm. The percentage of cell viability was determined with respect to the DMSO-treated cells. The results were summarized in Table 2-4 below, wherein A represents no less than 50% inhibition of cell growth; B represents less than 50% but no less than 30% inhibition of cell growth; C represents less than 30% inhibition of cell growth.

[3] = system: B16F10 (malignant melanoma); assay: Antiproliferative activity, CCK-8 cell viability; settings: Mus musculus, B16-F10, 72 h, read-out: Inhibition of Cancerous Cells, B16F10
Method: as §1, §2

HeLa (cervical cancer) = assay: Antiproliferative activity, CCK-8 cell viability; settings: Homo sapiens, 72 h, read-out: Inhibition of Cancerous Cells, HELA
Method: as §1, §2

HepG2 (liver cancer) = assay: Antiproliferative activity, CCK-8 cell viability; settings: Homo sapiens, 72 h, read-out: Inhibition of Cancerous Cells, HepG2
Method: as §1, §2

[4] = system: MDA-MB-231 (breast cancer); assay: Antiproliferative activity, CCK-8 cell viability; settings: Homo sapiens, 72 h, read-out: Inhibition of Cancerous Cells, MDA-MB-231
Method: as §1, §2

SW480 (colon cancer) = assay: Antiproliferative activity, CCK-8 cell viability; settings: Homo sapiens, 72 h, read-out: Inhibition of Cancerous Cells, SW480
Method: as §1, §2

[5] = compound concentration of 3.3 μM
[6] = compound concentration of 10 μM
[7] = compound concentration of 30 μM

With CC1=C(CC(=O)O)c2cc(F)ccc2/C1=C\c1cccc(Oc2ccc(C(F)(F)F)cc2)c1 [Compound D26, 2-[(1Z)-5-Fluoro-2-methyl-1-({3-[4-trifluoromethylphenoxy]phenyl}-methylidene)-1H-inden-3-yl]acetic acid] as the molecule, how does the inhibition at 10 µM [1] read?
Its inhibition at 10 µM is no less than 80%.

What about the inhibition at 3.3 µM [2, 5] of the same molecule?
Its inhibition at 3.3 µM is 30 to 50%.

What about the inhibition at 10 µM [2, 6] of the same molecule?
The inhibition at 10 µM was 30 to 50%.

What about the inhibition at 30 µM [2, 7] of the same molecule?
The inhibition at 30 µM was no less than 50%.

What about the inhibition at 3.3 µM [3, 5] of the same molecule?
The inhibition at 3.3 µM was 30 to 50%.

What about the inhibition at 10 µM [3, 6] of the same molecule?
The inhibition at 10 µM was no less than 50%.

What about the inhibition at 30 µM [3, 7] of the same molecule?
The inhibition at 30 µM was no less than 50%.

What about the inhibition at 3.3 µM (HeLa (cervical cancer); [5]) of the same molecule?
Its inhibition at 3.3 µM is 30 to 50%.

What about the inhibition at 10 µM (HeLa (cervical cancer); [6]) of the same molecule?
The inhibition at 10 µM was no less than 50%.

What about the inhibition at 30 µM (HeLa (cervical cancer); [7]) of the same molecule?
The inhibition at 30 µM was no less than 50%.

What about the inhibition at 3.3 µM (HepG2 (liver cancer); [5]) of the same molecule?
The inhibition at 3.3 µM was 30 to 50%.

What about the inhibition at 10 µM (HepG2 (liver cancer); [6]) of the same molecule?
Its inhibition at 10 µM is no less than 50%.

And the inhibition at 30 µM (HepG2 (liver cancer); [7])?
Its inhibition at 30 µM is no less than 50%.

And the inhibition at 3.3 µM [4, 5]?
The inhibition at 3.3 µM was no less than 50%.

What about the inhibition at 10 µM [4, 6] of the same molecule?
Its inhibition at 10 µM is no less than 50%.

What about the inhibition at 30 µM [4, 7] of the same molecule?
The inhibition at 30 µM was no less than 50%.

What about the inhibition at 3.3 µM (SW480 (colon cancer); [5]) of the same molecule?
The inhibition at 3.3 µM was less than 30%.

What about the inhibition at 10 µM (SW480 (colon cancer); [6]) of the same molecule?
The inhibition at 10 µM was less than 30%.

And the inhibition at 30 µM (SW480 (colon cancer); [7])?
Its inhibition at 30 µM is no less than 50%.

With CC1=C(CC(=O)N(C)O)c2cc(F)ccc2/C1=C\c1ccc(C2CC2)cc1 [Compound B3, (Z)-2-(1-(4-Cyclopropylbenzylidene)-5-fluoro-2-methyl-1H-inden-3-yl)-N-hydroxy-N-methylacetamide] as the molecule, how does the inhibition at 10 µM [1] read?
The inhibition at 10 µM was no less than 80%.

For CC1=C(CC(=O)NO)c2cc(F)ccc2/C1=C\c1ccc(Br)c2ccccc12 [Compound C4, (Z)-2-(1-((4-Bromonaphthalen-1-yl)methylene)-5-fluoro-2-methyl-1H-inden-3-yl)-N-hydroxyacetamide], which inhibition at 10 µM [1] is on record?
Its inhibition at 10 µM is no less than 80%.

For CC1=C(CC(=O)O)c2cc(F)ccc2/C1=C\c1cccc(Oc2ccc(C#N)cc2)c1 [Compound D24, 2-[(1Z)-5-Fluoro-2-methyl-1-({3-[4-cyanophenoxy]phenyl}methylidene)-1H-inden-3-yl]acetic acid], which inhibition at 10 µM [1] is on record?
Its inhibition at 10 µM is no less than 80%.

CC1=C(CC(=O)NO)c2cc(F)ccc2/C1=C\c1ccc(C2=CCCC2)cc1 [Compound D40, (Z)-2-(1-(4-(Cyclopent-1-en-1-yl)benzylidene)-5-fluoro-2-methyl-1H-inden-3-yl)-N-hydroxyacetamide] was tested. Which inhibition at 10 µM [1] did it give?
The inhibition at 10 µM was 50 to 80%.

CC1=C(CC(=O)O)c2cc(F)ccc2/C1=C\c1cccc(N(C)c2ccccc2)c1 [Compound D37, 2-[(1Z)-5-Fluoro-2-methyl-1-({3-[methyl(phenyl)amino]phenyl}methylidene)-1H-inden-3-yl]acetic acid] was tested. Which inhibition at 10 µM [1] did it give?
Its inhibition at 10 µM is no less than 80%.

Which inhibition at 10 µM [1] does the source give for CC1=C(CC(=O)N(C)O)c2cc(F)ccc2/C1=C\c1ccc(C)c2ccccc12 [Compound C1, (Z)-2-(5-Fluoro-2-methyl-1-((4-methylnaphthalen-1-yl)methylene)-1H-inden-3-yl)-N-hydroxy-N-methylacetamide] here?
The inhibition at 10 µM was 50 to 80%.

How did the inhibition at 10 µM [1] turn out when CC1=C(CC(=O)O)c2cc(F)ccc2/C1=C\c1ccc(Oc2ccc(C)c(F)c2)cc1 [Compound D4, 2-[(1Z)-5-Fluoro-2-methyl-1-({4-[3-fluoro-4-methylphenoxy]phenyl}-methylidene)-1H-inden-3-yl]acetic acid] was run?
Its inhibition at 10 µM is no less than 80%.

For COc1ccc2c(c1)/C(=C\c1ccc(Oc3ccccc3)cc1)C(C)=C2CC(=O)O [Compound D29, 2-[(1Z)-6-Methoxy-1-(4-(phenoxy)benzylidene)-2-methyl-1H-inden-3-yl]-acetic acid], which inhibition at 10 µM [1] is on record?
Its inhibition at 10 µM is 50 to 80%.

CC1=C(CC(=O)O)c2cc(F)ccc2/C1=C\c1ccc(F)cc1OCc1ccccc1 [Compound A7, 2-[(1Z)-1-{[2-(Benzyloxy)-4-fluorophenyl]methylidene}-5-fluoro-2-methyl-1H-inden-3-yl]acetic acid] was tested. Which inhibition at 10 µM [1] did it give?
Its inhibition at 10 µM is less than 30%.

Which inhibition at 10 µM [1] does the source give for CC1=C(CC(=O)O)c2cc(F)ccc2/C1=C\c1ccc(Oc2ccc(C(F)(F)F)cc2)cc1 [Compound D7, 2-[(1Z)-5-Fluoro-2-methyl-1-({4-[4-(trifluoromethyl)phenoxy]phenyl}-methylidene)-1H-inden-3-yl]acetic acid] here?
The inhibition at 10 µM was no less than 80%.

CC1=C(CC(=O)O)c2cc(F)ccc2/C1=C\c1ccc(Br)c2ccccc12 [Compound C3, (Z)-2-(1-((4-Bromonaphthalen-1-yl)methylene)-5-fluoro-2-methyl-1H-inden-3-yl)acetic acid] was tested. Which inhibition at 10 µM [1] did it give?
The inhibition at 10 µM was no less than 80%.

For COc1ccc2c(c1)C(CC(=O)O)=C(C)/C2=C/c1ccc(Oc2ccc(F)cc2)cc1 [Compound D10, 2-[(1Z)-5-Methoxy-2-methyl-1-({4-[4-fluorophenoxy]phenyl}methylidene)-1H-inden-3-yl]acetic acid], which inhibition at 10 µM [1] is on record?
The inhibition at 10 µM was no less than 80%.

How did the inhibition at 10 µM [1] turn out when CC(C)CC1=C(CC(=O)O)c2cc(F)ccc2/C1=C\c1ccc(Oc2ccc(F)cc2)cc1 [Compound D8, 2-[(1Z)-5-Fluoro-1-{[4-(4-fluorophenoxy)phenyl]methylidene}-2-(2-methyl-propyl)-1H-inden-3-yl]acetic acid] was run?
Its inhibition at 10 µM is no less than 80%.

Which inhibition at 10 µM [1] does the source give for CC1=C(CC(N)=O)c2cc(F)ccc2/C1=C\c1ccc(C(C)(C)C)cc1 [Compound D41, (Z)-2-(1-(4-(Tert-butyl)benZylidene)-5-fluoro-2-methyl-1H-inden-3-yl)acetamide] here?
The inhibition at 10 µM was no less than 80%.
